According to patent US20100267743A1, “3-(PHENOXYPYRROLIDIN-3-YL-METHYL)HETEROARYL, 3-(PHENYLPYRROLIDIN-3-YLMETHOXY)HETEROARYL, AND 3-(HETEROARYLPYRROLIDIN-3-YLMETHOXY)HETEROARYL COMPOUNDS” (priority 2009, published 2010):

What was measured:
SERT = SERT (Homo sapiens, UniProt P31645); assay: hSERT radioligand binding assay (3H-citalopram); set-up: expressed in transfected cells; host or cells: HEK-293; conditions: hSERT membranes (HEK-293), 1.0 nM 3H-citalopram; for Ki: read-out: SERT pKi (converted)
Chain of SERT (P31645 whole entry): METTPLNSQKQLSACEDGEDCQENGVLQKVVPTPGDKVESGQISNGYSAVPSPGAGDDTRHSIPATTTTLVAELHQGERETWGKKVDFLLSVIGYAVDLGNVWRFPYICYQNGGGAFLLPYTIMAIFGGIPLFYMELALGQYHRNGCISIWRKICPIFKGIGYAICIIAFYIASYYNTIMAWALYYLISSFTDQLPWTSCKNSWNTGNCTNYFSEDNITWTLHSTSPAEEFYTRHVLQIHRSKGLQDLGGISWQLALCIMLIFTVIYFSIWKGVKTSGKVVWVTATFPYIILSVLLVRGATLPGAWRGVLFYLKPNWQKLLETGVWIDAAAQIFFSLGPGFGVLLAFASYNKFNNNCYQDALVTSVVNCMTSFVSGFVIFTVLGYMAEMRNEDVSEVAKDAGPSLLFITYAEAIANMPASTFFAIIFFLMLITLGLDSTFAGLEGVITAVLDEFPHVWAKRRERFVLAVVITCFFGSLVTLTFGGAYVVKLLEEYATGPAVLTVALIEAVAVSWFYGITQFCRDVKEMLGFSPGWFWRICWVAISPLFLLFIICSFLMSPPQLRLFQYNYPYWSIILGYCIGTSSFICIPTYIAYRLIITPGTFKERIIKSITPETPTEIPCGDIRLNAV
Description: (§1) Membrane radioligand binding assays were used to measure inhibition of labeled ligand (^3H-citalopram or ^3H-nisoxetine or ^3H-WIN35428) binding to membranes prepared from cells expressing the respective human recombinant transporter (hSERT or hNET or hDAT) in order to determine the pKi values of test compounds at the transporters.
(§2) Recombinant human embryonic kidney (HEK-293) derived cell lines stably transfected with hSERT or hNET, respectively, were grown in DMEM medium supplemented with 10% dialyzed FBS (for hSERT) or FBS (for hNET), 100 μg/ml penicillin, 100 μg/ml streptomycin, 2 mM L-glutamine and 250 μg/ml of the aminoglycoside antibiotic G418, in a 5% CO2 humidified incubator at 37° C. When cultures reached 80% confluence, the cells were washed thoroughly in PBS (without […] and Mg^2+) and lifted with 5 mM EDTA in PBS. Cells were pelleted by centrifugation, resuspended in lysis buffer (10 mM Tris-HCl, pH7.5 containing 1 mM EDTA), homogenized, pelleted by centrifugation, then resuspended in 50 mM Tris-HCl, pH 7.5 and 10% sucrose at 4° C. Protein concentration of the membrane suspension was determined using a Bio-Rad Bradford Protein Assay kit. Membranes were snap frozen and stored at −80° C. Chinese hamster ovary membranes expressing hDAT (CHO-DAT) were purchased from PerkinElmer and stored at −80° C.
(§3) Binding assays were performed in a 96-well assay plate in a total volume of 200 μl assay buffer (50 mM Tris-HCl, 120 mM NaCl, 5 mM KCl, pH 7.4) with 0.5, 1, and 3 μg membrane protein, for SERT, NET and DAT, respectively.
(§4) Stock solutions (10 mM in DMSO) of test compound were prepared and serial dilutions made using Dilution Buffer (50 mM Tris-HCl, 120 mM NaCl, 5 mM KCl, pH 7.4, 0.1% BSA, 400 μM ascorbic acid).
(§5) Following a 60 minute incubation at 22° C. (or a period sufficient to reach equilibrium), the membranes were harvested by rapid filtration over a 96-well UniFilter GF/B plate, pretreated with 0.3% polyethyleneimine, and washed 6 times with 300 μl wash buffer (50 mM Tris-HCl, 0.9% NaCl, pH 7.5 at 4° C.). Plates were dried overnight at room temperature, ˜45 μl of MicroScint™-20 (Perkin Elmer) added and bound radioactivity quantitated via liquid scintillation spectroscopy. Inhibition curves and saturation isotherms were analyzed using GraphPad Prism Software package (GraphPad Software, Inc., San Diego, Calif.). IC50 values were generated from concentration response curves using the Sigmoidal Dose Response (variable slope) algorithm in Prism GraphPad. Kd and Bmax values for the radioligand were generated from saturation isotherms using the Saturation Binding Global Fit algorithm in Prism GraphPad. pKi (negative decadic logarithm of Ki) values for test compounds were calculated from the best-fit IC50 values, and the Kd value of the radioligand, using the Cheng-Prusoff equation (Cheng & Prusoff (1973) Biochem. Pharmacol. 22(23):3099-3108): Ki=IC50/(1+[L]/Kd), where [L]=concentration radioligand.

NET = NET (Homo sapiens, UniProt P23975); assay: hNET radioligand binding assay (3H-nisoxetine); set-up: expressed in transfected cells; host or cells: HEK-293; conditions: hNET membranes (HEK-293), 1.0 nM 3H-nisoxetine; for Ki: read-out: NET pKi (converted)
Chain of NET (P23975 whole entry): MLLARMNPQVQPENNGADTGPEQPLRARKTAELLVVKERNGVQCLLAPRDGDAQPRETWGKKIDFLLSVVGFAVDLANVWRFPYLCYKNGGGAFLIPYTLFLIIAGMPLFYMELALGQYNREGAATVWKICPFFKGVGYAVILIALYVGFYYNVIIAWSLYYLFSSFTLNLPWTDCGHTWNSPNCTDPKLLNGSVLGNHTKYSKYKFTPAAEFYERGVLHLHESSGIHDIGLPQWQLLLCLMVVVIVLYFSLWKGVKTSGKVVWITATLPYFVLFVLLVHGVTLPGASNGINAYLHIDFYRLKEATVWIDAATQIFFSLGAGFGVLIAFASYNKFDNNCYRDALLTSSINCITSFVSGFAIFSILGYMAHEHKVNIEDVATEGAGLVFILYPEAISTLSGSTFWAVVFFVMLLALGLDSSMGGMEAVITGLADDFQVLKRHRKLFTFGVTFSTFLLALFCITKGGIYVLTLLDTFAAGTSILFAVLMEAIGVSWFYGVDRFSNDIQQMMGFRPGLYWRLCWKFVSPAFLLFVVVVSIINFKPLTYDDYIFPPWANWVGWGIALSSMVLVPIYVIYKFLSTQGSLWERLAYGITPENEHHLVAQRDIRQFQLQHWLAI
Description: as §1, §2, §3, §4, §5

| Compound | SERT pKi (SERT) | NET pKi (NET) | Ki (SERT) [µM] | Ki (NET) [µM] |
| --- | --- | --- | --- | --- |
| Cc1cc(Br)cnc1O[C@@H](c1ccccc1)[C@H]1CCNC1.O=C(O)C(F)(F)F [14-21] | ≧7.0 | ≧7.0 |  |  |
| Fc1cc(F)c(Cl)c(O[C@@H](c2nccs2)[C@H]2CCNC2)c1Cl [Example 5-8] | ≧5.0 | ≧5.0 |  |  |
| Clc1ccc(O[C@@H](c2ccccc2)[C@H]2CCNC2)c(Cl)n1.O=C(O)C(F)(F)F [15-3] | ≧7.0 | ≧7.0 |  |  |
| Cc1cc(Cl)cnc1O[C@@H](c1cncc(F)c1)[C@H]1CCNC1 [Example 17] |  |  | ≤ 0.1 | ≤ 0.1 |
| Fc1cncc([C@H](Oc2ccc3ccccc3c2)[C@H]2CCNC2)c1.O=C(O)C(F)(F)F [20-3] | ≧7.0 | ≧7.0 |  |  |
| COc1ccccc1O[C@@H](c1ncco1)[C@H]1CCNC1.O=C(O)C(F)(F)F [6-52] | ≧5.0 | ≧7.0 |  |  |
| Fc1cc(F)c(OC(c2nccs2)C2CCNC2)c(F)c1 [Example 5-6, 2-[(R)-((S)-Pyrrolidin-3-yl-(2,4,6-trifluorophenoxy)methyl]thiazole] |  |  | ≤ 10 | ≤ 10 |
| Clc1ccc(O[C@H](c2ccccc2)[C@@H]2CCNC2)cn1.O=C(O)C(F)(F)F [15-23] | ≧7.0 | ≧5.0 |  |  |
| Cc1ccccc1O[C@@H](c1nccs1)[C@H]1CCNC1 [Example 5-24] | ≧7.0 | ≧5.0 |  |  |
| Clc1ccc(O[C@@H](c2ccccc2)C2CCNC2)cn1 (stereo partly shown) [15-22] |  |  | ≤ 0.1 | ≤ 10 |
| Fc1c(Cl)ccc(O[C@@H](c2ncco2)[C@H]2CCNC2)c1Cl.O=C(O)C(F)(F)F [6-4] | ≧7.0 | ≧7.0 |  |  |
| Fc1cccc(C(Oc2cccc3ccccc23)C2CCNC2)c1 (stereo not shown) [21-4] |  |  | ≤ 0.1 | ≤ 0.1 |
| Fc1ccc(O[C@H](c2nccs2)[C@H]2CCNC2)cc1Cl [Example 5-31] | ≧7.0 | ≧7.0 |  |  |
| COc1cccc(F)c1O[C@@H](c1ncco1)[C@H]1CCNC1.O=C(O)C(F)(F)F [6-41] | ≧5.0 | ≧7.0 |  |  |
| Fc1ccc(F)c(O[C@H](c2cnccn2)[C@H]2CCNC2)c1Cl [10-4] |  |  | ≤ 0.1 | ≤ 10 |
| Cc1ccc(Cl)c(O[C@H](c2ccncc2)[C@H]2CCNC2)c1Cl [Example 3-7, 4-[(S)-(2,6-Dichloro-3-methylphenoxy)-(S)-pyrrolidin-3-yl-methyl]pyridine] |  |  | ≤ 0.1 | ≤ 0.1 |
| Fc1cc(Cl)cc(Cl)c1OC(c1cncc(Cl)c1)C1CCNC1 [Example 2-27, 3-Chloro-5-[(R)-(2,4-dichloro-6-fluorophenoxy)-(S)-pyrrolidin-3-yl-methy1]-pyridine] |  |  | ≤ 0.1 | ≤ 0.1 |
| Cc1cc(Cl)c(O[C@@H](c2ncco2)[C@H]2CCNC2)c(Cl)c1.O=C(O)C(F)(F)F [6-12] | ≧7.0 | ≧5.0 |  |  |
| Fc1cc(F)c(O[C@@H](c2ccccc2)[C@H]2CCNC2)nc1F.O=C(O)C(F)(F)F [14-1] | ≧7.0 | ≧5.0 |  |  |
| Clc1ncccc1O[C@H](c1ccccc1)[C@@H]1CCNC1.O=C(O)C(F)(F)F [15-5] | ≧7.0 | ≧7.0 |  |  |
| Clc1ccc(Cl)c(O[C@@H](c2cccnc2)[C@H]2CCNC2)c1Cl [Example 2-67, 3-[(R)-(S)-Pyrrolidin-3-yl-(2,3,6-trichlorophenoxy)methyl]pyridine] |  |  | ≤ 0.1 | ≤ 0.1 |
| Cc1ccc(F)c(OC(c2nccs2)C2CCNC2)c1Cl [Example 5-18, 2-[(R)-(2-Chloro-6-fluoro-3-methylphenoxy)-((S)-pyrrolidin-3-yl-methyl]thiazole] |  |  | ≤ 0.1 | ≤ 0.1 |
| Fc1cc(F)c(OC(c2nccs2)C2CCNC2)c(F)c1.O=C(O)C(F)(F)F (mixture of isomers) [Example 5-5, 2-[((S)-Pyrrolidin-3-yl-(2,4,6-trifluorophenoxy)methyl]thiazole] | ≧7.0 | ≧7.0 |  |  |
